The results in this text go back to paper PMC6309140, “Synthesis and Evaluation of a New Type of Small Molecule Epigenetic Modulator Containing Imidazo[1,2-b][1,2,4]triazole Motif” (Frontiers in Chemistry, 2018).

One data set relates to HEK 293 F cells. Description: Viability assays (CellTiter-Glo, ATP). Type of data set: cell-based. To be noted: for IC50: viable cells by ATP quantitation, 3 days incubation, Figure 2 says B2-17 cells, method says HEK 293 F cells, read-out: IC50 (relative half maximal growth inhibitory concentration). The text has this:
(§1) To identify novel small molecules targeting gene repression, we devised an image-based high-throughput screening system using the engineered HEK 293 F cell (termed as B2-17 cells) as report cell line. A chemical library containing 308,251 small molecules was screened in this system. Purposed for unbiased compound screening, this library had been used in a variety of studies (Sun et al., [2012]; Wang et al., [2013]; Dong et al., [2015]; Li et al., [2016]). Hundred and fifty eight compounds which reactivated reporter genes in more than half of cells were selected as hits. Next, we performed titration experiments for all these hits in the B2-17 cell line. The efficacy of each compound was evaluated by its maximal percentage of EGFP^+ cells in the dose-response curve (maximal RGFP) and relative half maximal effect concentration (EC50). The toxicity of the hits was also tested in parallel, measured by number of viable cells in each treatment. The assay is based on quantitative analysis of ATP, an indicator of metabolically active cells. For each compound, we calculated the relative half maximal growth inhibitory concentration (IC50), based on the abovementioned assay.
HEK 293 F cells were plated in 384-well, flat-bottom, tissue culture dishes (Corning) and treated with compounds, incubated 3 days, and assayed for viability using the CellTiter-Glo Luminescent Cell Viability Assay (Promega) according to the manufacturer's protocol. The […] with an EnSight plate reader (Perkin Elmer). Data were normalized to the untreated control (100% viability). Each treatment was tested in two independent assays, each containing 3 replicates. The titration-viability curves of each compound were also generated by using Origin 6.0 Pro software.
A general note: Cellular ATP, detected with luciferase, serves as a proxy for viable cell number.

Data set [1] has as its system EGFP reporter gene silenced by DNA methylation (B2-17 cells). The data set can be described thus: Compound effective assay: derepression of EGFP reporter in B2-17 reporter cells (image-based, titration). It is filed as cell-based. To be noted: for Emax: 72 h, read-out: Maximal RGFP% (maximal percentage of EGFP+ cells in the dose-response curve); for EC50: dose-response of EGFP+ cells, read-out: EC50 (relative half maximal effect concentration); for activity of derepressing the EGFP reporter gene silenced by DNA methylation (in words): compared with hit compound LX-3.
Excerpt: as §1
Procedure for cell culture and establishment of the reporter cell line were reported in our previously published paper (Li et al., [2018]).
Before plating cells, 384-well plates (ViewPlate, PerkinElmer) were coated with PDL (poly-D-lysine, Sigma). For each well, 1,300 B2-17 cells were plated by using a Matrix Wellmate microplate dispenser (Thermo Scientific). Then, 0.25 μL of compound was added to each well by using a versatile pipetting robot, the Biomek FX workstation (Beckman Coulter), to give a final compound concentration of 5 μM. After treatment for 72 h, the cell nuclei were stained by Hoechst 33342 (Sigma) before imaging.
The cells were imaged with Opera LX (PerkinElmer, three views per well by using 10 x (air) objective lens). Images were analyzed with the Columbus system, the mean percentage of EGFP+ cells (RGFP) was obtained to extrapolate the number of EGFP expressing cells and Hoechst-stained nuclei.
For the titration assay, the positive compounds were diluted in DMSO at concentrations ranging from 0.625 to 4 mM. Then, the B2-17 cells were treated by gradient compound and imaged as described before.
For each compound, a dose-response series was generated by using Origin 6.0 Pro software. The dot plot was fit by a DoseResp curve and then the EC50 was calculated.
For orientation: In a reporter assay the amount or activity of a reporter protein is the signal.

“Also recorded” adds a separate entry of the source. Read-outs that look alike come from different tables or passages of the source. Bounds are passed on as bounds.

As for `O=C(Cn1c2ccccc2n2nc(Cc3ccccc3)nc12)c1ccc(Br)cc1` [22f, 2-(2-benzyl-4H-benzo[4,5]imidazo[1,2-b][1,2,4]triazol-4-yl)-1-(4-bromophenyl)ethan-1-one], in the data set on HEK 293 F cells (HEK293F, 72 h), the IC50 came to 4.7 µM. In data set [1] (B2-17 cells, 72 h treatment), the Emax was less than 22% and the EC50 came out at 6.4 µM.

Take `Cc1cc2c(cc1C)n1nc(-c3cccs3)nc1n2CC(=O)c1ccc(Br)cc1` [14a, 1-(4-bromophenyl)-2-(6,7-dimethyl-2-(thiophen-2-yl)-4H-benzo[4,5]imidazo[1,2-b][1,2,4]triazol-4-yl)ethan-1-one]: in the data set with HEK 293 F cells (HEK293F, 72 h), the IC50 is 3.9 µM. Further, in data set [1] (B2-17 cells, 72 h treatment), the Emax worked out at 26% and the EC50 came to 28 µM. In addition, the “activity of derepressing the EGFP reporter gene silenced by DNA methylation (in words)” value (from here on “activity”) in data set [1] is “significantly decreased”.

With `COC(=O)c1ccc(C(=O)Cn2c3ccccc3n3nc(-c4cccs4)nc23)cc1` [7d, methyl 4-(2-(2-(thiophen-2-yl)-4H-benzo[4,5]imidazo[1,2-b][1,2,4]triazol-4-yl)acetyl)benzoate], the IC50 in the data set on HEK 293 F cells (HEK293F, 72 h) was 10.2 µM. In the data set with HEK 293 F cells (compared with hit compound LX-3), the “toxicity (in words)” value was “less toxicity”. In data set [1] (B2-17 cells, 72 h treatment), the Emax worked out at 73% and the EC50 worked out at 2.4 µM. Further, the “activity” value in data set [1] was “significantly increased; also recorded: slightly better activity”.

In the case of `O=C(Cn1c2ccccc2n2nc(-c3ccccn3)nc12)c1ccc(Br)cc1` [22e, 1-(4-bromophenyl)-2-(2-(pyridin-2-yl)-4H-benzo[4,5]imidazo[1,2-b][1,2,4]triazol-4-yl)ethan-1-one], in the data set on HEK 293 F cells (HEK293F, 72 h), the IC50 was determined as 2.8 µM. Further, the Emax in data set [1] (B2-17 cells, 72 h treatment) amounted to 6%.

For the molecule `O=C(Cn1c2ccccc2n2nc(-c3cccs3)nc12)c1cccs1` [9c, 1-(thiophen-2-yl)-2-(2-(thiophen-2-yl)-4H-benzo[4,5]imidazo[1,2-b][1,2,4]triazol-4-yl)ethan-1-one], the IC50 in the data set on HEK 293 F cells (HEK293F, 72 h) was 4.9 µM. Moreover, in data set [1] (B2-17 cells, 72 h treatment), the Emax turned out to be 40% and the EC50 is 2.3 µM.

With `O=C(Cn1c2ccccc2n2nc(-c3cccs3)nc12)c1c(F)c(F)c(F)c(F)c1F` [7g, 1-(perfluorophenyl)-2-(2-(thiophen-2-yl)-4H-benzo[4,5]imidazo[1,2-b][1,2,4]triazol-4-yl)ethan-1-one], the IC50 in the data set on HEK 293 F cells (HEK293F, 72 h) worked out at 1.1 µM. Moreover, the Emax in data set [1] (B2-17 cells, 72 h treatment) is 10%. Besides, the “activity” value in data set [1] was “significantly decreased”.

Consider `C=CCc1cc(/C=N/Nc2ccc(Br)cc2)cc(OCC)c1OC` [LX-1], for which the IC50 in the data set on HEK 293 F cells (HEK293F, 72 h) was determined as 8.5 µM. In data set [1] (B2-17 cells, 72 h treatment), the Emax was 72% and the EC50 was 1.9 µM.

On to `O=C(O)c1ccc(C(=O)Cn2c3ccccc3n3nc(-c4cccs4)nc23)cc1` [7j, 4-(2-(2-(thiophen-2-yl)-4H-benzo[4,5]imidazo[1,2-b][1,2,4]triazol-4-yl)acetyl)benzoic acid], for which the IC50 in the data set with HEK 293 F cells (HEK293F, 72 h) worked out at 4.8 µM. The Emax in data set [1] (B2-17 cells, 72 h treatment) was determined as 7%. Further, the “activity” value in data set [1] was “decreased to some extent”.

`COc1ccccc1-c1nc2n(CC(=O)c3ccc(Br)cc3)c3ccccc3n2n1` [22b, 1-(4-bromophenyl)-2-(2-(2-methoxyphenyl)-4H-benzo[4,5]imidazo[1,2-b][1,2,4]triazol-4-yl)ethan-1-one]: the IC50 in the data set with HEK 293 F cells (HEK293F, 72 h) was found to be 3.3 µM. Further, in data set [1] (B2-17 cells, 72 h treatment), the Emax is 21% and the EC50 amounted to 6.8 µM. Moreover, the “activity” value in data set [1] is “decreased significantly or even disappeared”.

With “2-(4-bromophenyl)-1-(2-(thiazol-2-yl)-4H-benzo[4,5] imidazo[1,2-b][1,2,4]triazol-4-yl)ethan-1-one [31b]”, the IC50 in the data set on HEK 293 F cells was 11.5 µM. In addition, the “Maximal RGFP% (maximal percentage of EGFP+ cells in the dose-response curve)” value in data set [1] (B2-17 cells, 72 h treatment) came out at 6.0%. In data set [1], the “activity” value was “loss of activity”.

For the molecule `O=C(Cn1c2ccccc2n2nc(-c3cccs3)nc12)c1nccs1` [9a, 1-(thiazol-2-yl)-2-(2-(thiophen-2-yl)-4H-benzo[4,5]imidazo[1,2-b][1,2,4]triazol-4-yl)ethan-1-one], the IC50 in the data set on HEK 293 F cells (HEK293F, 72 h) was found to be 8.7 µM. In data set [1] (B2-17 cells, 72 h treatment), the Emax came to 30% and the EC50 worked out at 4.7 µM.

As for `N#Cc1ccc(-c2nc3n(CC(=O)c4ccc(Br)cc4)c4ccccc4n3n2)s1` [compound 27, 5-(4-(2-(4-bromophenyl)-2-oxoethyl)-4H-benzo[4,5]imidazo[1,2-b][1,2,4]triazol-2-yl)thiophene-2-carbonitrile], the Emax in data set [1] (B2-17 cells, 72 h treatment) came out at 6%. Besides, the “activity” value in data set [1] is “significant decrease or disappearance”.

As for `Cc1ccsc1-c1nc2n(CC(=O)c3ccc(Br)cc3)c3ccccc3n2n1` [22d, 1-(4-bromophenyl)-2-(2-(3-methylthiophen-2-yl)-4H-benzo[4,5]imidazo[1,2-b][1,2,4]triazol-4-yl)ethan-1-one], the IC50 with HEK 293 F cells (HEK293F, 72 h) was 12.3 µM. The Emax in data set [1] (B2-17 cells, 72 h treatment) is 19%. Besides, the “activity” value in data set [1] was “disappeared”.

With `Nc1ccc(C(=O)Cn2c3ccccc3n3nc(-c4cccs4)nc23)cc1` [7i, 1-(4-aminophenyl)-2-(2-(thiophen-2-yl)-4H-benzo[4,5]imidazo[1,2-b][1,2,4]triazol-4-yl)ethan-1-one], the IC50 in the data set on HEK 293 F cells (HEK293F, 72 h) turned out to be 5.3 µM. The Emax in data set [1] (B2-17 cells, 72 h treatment) was determined as 19%. In addition, the “activity” value in data set [1] is on record as “decreased to some extent”.

Consider `O=C(Cn1c2ccc(Cl)cc2n2nc(-c3cccs3)nc12)c1ccc(Br)cc1` [compound 19, 1-(4-bromophenyl)-2-(7-chloro-2-(thiophen-2-yl)-4H-benzo[4,5]imidazo[1,2-b][1,2,4]triazol-4-yl)ethan-1-one], for which the IC50 in the data set on HEK 293 F cells (HEK293F, 72 h) is 14.3 µM. Further, in data set [1] (B2-17 cells, 72 h treatment), the Emax is 63% and the EC50 is 14.9 µM. In addition, in data set [1], the “activity” value was “significantly decreased”.

Consider `O=C(Cn1c2ccccc2n2nc(-c3cccs3)nc12)c1ccc(C(F)(F)F)cc1` [7e, 2-(2-(thiophen-2-yl)-4H-benzo[4,5]imidazo[1,2-b][1,2,4]triazol-4-yl)-1-(4-(trifluoromethyl)phenyl)ethan-1-one], for which the IC50 with HEK 293 F cells (HEK293F, 72 h) is 4.7 µM. Also, in data set [1] (B2-17 cells, 72 h treatment), the Emax worked out at 81% and the EC50 came to 3.7 µM. Further, the “activity” value in data set [1] is on record as “remained the same”.

With `COc1ccc(NC(=O)c2ccco2)cc1NC(=O)c1ccc(-c2cccc([N+](=O)[O-])c2)o1` [LX-7], the IC50 with HEK 293 F cells (HEK293F, 72 h) stood at 3.2 µM. Besides, in data set [1] (B2-17 cells, 72 h treatment), the Emax amounted to 79% and the EC50 came to 1.9 µM.

As for `O=C(Cn1c2ccc(Br)cc2n2nc(-c3cccs3)nc12)c1ccc(Br)cc1` [17a, 2-(7-bromo-2-(thiophen-2-yl)-4H-benzo[4,5]imidazo[1,2-b][1,2,4]triazol-4-yl)-1-(4-bromophenyl)ethan-1-one], in the data set with HEK 293 F cells (HEK293F, 72 h), the IC50 turned out to be 6.6 µM. In data set [1] (B2-17 cells, 72 h treatment), the Emax turned out to be 41% and the EC50 amounted to 19.4 µM. Also, in data set [1], the “activity” value was “significantly decreased”.

Take `O=C(Cn1c2ccccc2n2nc(-c3cccs3)nc12)c1ccc(O)cc1` [7h, 1-(4-hydroxyphenyl)-2-(2-(thiophen-2-yl)-4H-benzo[4,5]imidazo[1,2-b][1,2,4]triazol-4-yl)ethan-1-one]: in the data set with HEK 293 F cells (HEK293F, 72 h), the IC50 was determined as 16.7 µM. Also, in data set [1] (B2-17 cells, 72 h treatment), the Emax stood at 56% and the EC50 is 5.8 µM. In addition, the “activity” value in data set [1] is recorded as “decreased to some extent”.

Turning to `CC(C)(C)c1nc2n(CC(=O)c3ccc(Br)cc3)c3ccccc3n2n1` [22g, 1-(4-bromophenyl)-2-(2-(tert-butyl)-4H-benzo[4,5]imidazo[1,2-b][1,2,4]triazol-4-yl)ethan-1-one], the IC50 with HEK 293 F cells (HEK293F, 72 h) was determined as 8.3 µM.

With `O=C(Cn1c2ccccc2n2nc(-c3cccs3)nc12)c1ccco1` [9b, 1-(furan-2-yl)-2-(2-(thiophen-2-yl)-4H-benzo[4,5]imidazo[1,2-b][1,2,4]triazol-4-yl)ethan-1-one], the Emax in data set [1] (B2-17 cells, 72 h treatment) is 6.6%.
